pIC50: −log10 of the molar value.
Tests used:
H3K9 acetylation = assay: Western blot of histone H3 lysine 9 acetylation in TNBC cells; assay type: cell-based, human; conditions: TNBC cell lines, 48 h
Protocol: Western blot analysis was performed as previously described, and all western blot analyses were performed at least three times.
Western blot analysis was performed as previously described. Briefly, whole cell or tissue lysates were prepared using ice-cold Nonidet P-40 buffer mixed with protease and phosphatase inhibitors (Roche, IN, USA) and centrifuged at 14,000 × g at 4 °C for 10 min. The protein lysates were fractionated by sodium dodecyl sulfate–polyacrylamide gel electrophoresis (SDS–PAGE) and transferred to polyvinylidene fluoride (PVDF) membranes (Merck, Darmstadt, Germany). Membranes were incubated in 1× TBST buffer containing 5% nonfat powdered milk at room temperature for 2 h. The indicated primary antibody was incubated with PVDF membranes, followed by a washing step using 1× TBST and a secondary antibody conjugated to HRP. Signal detection was carried out using the Western ECL Substrate kit (Bio-Rad, Hercules, CA, USA). […]

PARP1 = target: T1, PARP1 (Homo sapiens, UniProt P09874); assay: PARP1 enzymatic inhibition assay (PARP1 Colorimetric Assay Kit); assay type: biochemical
T1 construct: purchased BPS Bioscience 80580
T1 sequence (P09874 whole entry): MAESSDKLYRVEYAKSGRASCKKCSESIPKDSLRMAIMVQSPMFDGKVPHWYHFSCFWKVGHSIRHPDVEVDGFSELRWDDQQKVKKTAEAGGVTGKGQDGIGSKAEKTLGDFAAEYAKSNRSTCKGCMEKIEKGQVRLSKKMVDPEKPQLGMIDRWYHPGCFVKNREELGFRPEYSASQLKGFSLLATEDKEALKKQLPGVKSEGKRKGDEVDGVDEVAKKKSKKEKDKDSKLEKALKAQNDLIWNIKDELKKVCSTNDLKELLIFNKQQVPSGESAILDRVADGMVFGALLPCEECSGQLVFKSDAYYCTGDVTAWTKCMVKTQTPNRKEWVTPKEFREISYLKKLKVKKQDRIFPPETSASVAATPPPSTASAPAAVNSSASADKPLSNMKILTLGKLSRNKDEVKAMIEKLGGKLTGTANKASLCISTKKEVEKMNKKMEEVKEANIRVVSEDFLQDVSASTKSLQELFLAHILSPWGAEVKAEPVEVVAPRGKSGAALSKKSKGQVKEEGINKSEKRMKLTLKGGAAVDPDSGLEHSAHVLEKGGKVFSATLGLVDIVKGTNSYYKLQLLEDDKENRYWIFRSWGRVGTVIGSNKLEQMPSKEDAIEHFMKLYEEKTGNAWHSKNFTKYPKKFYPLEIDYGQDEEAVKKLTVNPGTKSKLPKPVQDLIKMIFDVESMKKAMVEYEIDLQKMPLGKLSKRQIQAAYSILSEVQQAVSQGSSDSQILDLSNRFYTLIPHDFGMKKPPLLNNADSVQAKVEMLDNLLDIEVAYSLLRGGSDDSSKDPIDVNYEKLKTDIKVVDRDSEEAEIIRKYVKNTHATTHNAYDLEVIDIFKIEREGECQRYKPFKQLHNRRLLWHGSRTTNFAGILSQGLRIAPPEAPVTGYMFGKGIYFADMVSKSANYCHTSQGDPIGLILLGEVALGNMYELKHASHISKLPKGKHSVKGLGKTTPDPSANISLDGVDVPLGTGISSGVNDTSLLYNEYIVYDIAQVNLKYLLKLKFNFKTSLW
Protocol: Briefly, the 1× histone mixture was added to each well and incubated overnight at 4 °C. Each well was washed three times with 200 µL 1× TBST buffer and filled with 200 µL Blocking buffer at room temperature for 90 min. Then, each well was filled with 25 µL of PARP master mixture (5 μL activated DNA + 2.5 μL 10× PARP Assay mixture + 2.5 μL 10× PARP buffer + 15 μL distilled water). Next, 5 µL of the compound of different concentrations was added to each well, and PARP enzyme was added and incubated at room temperature for 1 h. Next, streptavidin HRP solution was added and incubated at room temperature for 30 min. After adding 100 µL of colorimetric HRP substrate to each well, the plate was incubated until a blue color developed in the positive well, which contained PARP enzyme without inhibitors. The reaction was then quenched with 2 M sulfuric acid, and absorbance at 450 nm was measured using a microplate reader (BioTek, Winooski, VT, USA). After calculating the inhibition rate, the IC50 value was determined.

[1] = Body weight of tumor-bearing mice; assay type: in vivo
Source text: MDA-MB-436, MDA-MB-231, and 4T1 cells were orthotopically injected into the fat pads of 6- to 7-week-old female NOD-Prkdc^scid Il2rg^em1Smoc (M-NSG), BALB/c nude and BALB/c mice, respectively. Fourteen 6-week-old female MMTV-PyMT mice were divided into two groups. The […] in each group were littermates. All animal procedures were approved by the Institutional Animal Care and Use Committee at Shenzhen University.
MDA-MB-436 cells (5 × 10^6) were suspended in PBS and Matrigel (Corning) at a 1:1 ratio and orthotopically injected into the fat pads of 6- to 7-week-old female NOD-Prkdc^scid Il2rg^em1Smoc (M-NSG) mice from the Shanghai Model Organisms Center, Inc. MDA-MB-231 cells (5 × 10^6) were suspended in PBS orthotopically injected into the fat pads of 6- to 7-week-old female BALB/c nude mice from the Shanghai Model Organisms Center, Inc. 4T1 cells (1 × 10^6) were suspended in PBS and injected into the fat pads of 6- to 7-week-old […] BALB/c mice from GemPharmatech Co., Ltd. When the tumor size reached 100 mm^3, the mice were randomly divided into three treatment groups without blinding: B102 (15 mg/kg), B302 (50 mg/kg) or vehicle [10% N,N-dimethylacetamide (DMAC, Sangon Biotech) and 6% polyethylene glycol 12-hydroxystearate (Solutol HS-15, MedChem Express, Monmouth Junction, NJ, USA) in saline] treatment via an intraperitoneal injection once daily. […]

| SMILES | acetylation of lysine 9 of histone H3 (H3K9) (H3K9 acetylation) | pIC50 (PARP1) | body weights of tumor-bearing mice ([1]; 15 mg/kg/d) | body weights of tumor-bearing mice ([1]; 50 mg/kg/d) |
| --- | --- | --- | --- | --- |
| Nc1cc(F)ccc1NC(=O)/C=C/c1ccc(CN2CCN(C(=O)c3cc(Cc4n[nH]c(=O)c5ccccc45)ccc3F)CC2)cc1 [Compound B102] | elevated the acetylation | 7.72 | not obviously altered |  |
| Nc1cc(F)ccc1NC(=O)CCc1ccc(CN2CCN(C(=O)c3cc(Cc4n[nH]c(=O)c5ccccc45)ccc3F)CC2)cc1 [Compound B302] | elevated the acetylation | 7.90 |  | not obviously altered |

From paper PMC10770036, “Novel dual inhibitors of PARP and HDAC induce intratumoral STING-mediated antitumor immunity in triple-negative breast cancer” (Cell Death & Disease, 2024)
